Source: patent US10342786B2, “P38 kinase inhibitors reduce DUX4 and downstream gene expression for the treatment of FSHD” (Fulcrum Therapeutics, Inc., priority 2017, dated 2019)

Test system: DUX4-fl mRNA
Experiment: DUX4 / DUX4-fl mRNA expression by qPCR in FSHD myotubes
Type: cell-based, human
Protocol: In a 6 well plate, 450 μL Buffer RLT Plus was added. Lysate was homogenized by transfer the lysate to a gDNA Eliminator spin column placed in a 2 mL collection tube (supplied), centrifuged for 30 s at ≥8000×g (≥10,000 rpm) and discarded column while saving the flow-through. Then 250 μL of Ethanol (35% final) was added to the flow-through, and mixed well by pipetting, not centrifuged. Then samples were transferred, including any precipitate that may have formed, to an RNeasy MinElute spin column placed in a 2 mL collection tube (supplied). Then centrifuged for 15 s at ≥8000×g. Flow-through was discarded or collected for Protein precipitation. 700 μL Buffer RW1 to the RNeasy MinElute spin column was added then centrifuge for 15 s at ≥8000×g. and discard the flow-through. DNAse treatment was performed by gently mixing 10 μL DNAseI with 70 μL of Buffer RDD and added directly to the column, incubated at room temperature for 20 min. Then, 700 μL Buffer RW1 (per manufactures specification) to the RNeasy MinElute spin column, centrifuged for 15 s at >8000×g. and the flow-through discarded. 500 μL Buffer RPE was added to the RNeasy MinElute spin column centrifuged for 15 s at ≥8000×g and discarded the flow-through. 500 μL of 80% ethanol was added to the RNeasy MinElute spin column, centrifuged for 2 min at ≥8000×g to wash the spin column membrane and the collection tube was discarded with the flow-through. The RNeasy MinElute spin column was placed in a new 2 mL collection tube (supplied) centrifuged at full speed for 5 min to dry the membrane and the collection tube was discarded with the flow through. RNeasy MinElute spin column was placed in a new 1.5 mL collection tube (supplied). 14 μL RNase-free water was added directly to the center of the spin column membrane, and centrifuged for 1 min at full speed to elute the RNA. You should end up with about 12 μL of eluted RNA.
cDNA preparation. […] 10 seconds then read plate on QuantStudio7 as per manufactures instruction (Thermo). […]

Row | Molecule | DUX4-fl mRNA levels normalized to POLR2A mRNA (10, 100, and 1000 nM, FSHD myotubes, compared to DMSO) | DUX4 expression (1 μM ASO, FSHD myotubes vs DMSO) | DUX4 expression (different dilutions of the ASO, FSHD myotubes)
1 | Cn1c(=O)c(Oc2ccc(F)cc2F)cc2cnc(NC(CCO)CCO)nc21 [Pamapimod, 6-(2,4-difluorophenoxy)-2-((1,5-dihydroxypentan-3-yl)amino)-8-methylpyrido[2,3-d]pyrimidin-7(8H)-one] | dose-dependently reduced | – | –
2 | FTX-2: DUX4 sequence-directed antisense oligonucleotide purchased from Exiqon, CAGCGTCGGAAGGTGG (SEQ ID NO: 1) (listed as DNA, chemistry not given here) | – | reduced amounts | dose dependent reduction
